This note sets out measurements from patent publication US12360023B2, “Method of pretreating blood sample” (LABTECHS Inc., priority 2017, dated 2025).

The series relates to Streptococcus agalactiae. In words: Viability of bacteria under detergent treatment. It is filed as cell-based.

With `CCCCCCCCCCCCOS(=O)(=O)[O-].[Na+]` [SDS, sodium dodecyl sulfate], the “killing of bacteria by detergent” value was “does not kill” (SDS concentration 0.05%) and “largely killed” (SDS concentration 0.1% or 0.2%).
